Biological target: T1, human CB2R (Homo sapiens, UniProt P34972)
T1 construct: host or cells: CHO cells
Assay: CB2R mediated modulation of cAMP synthesis
Assay type: cell-based
Conditions: found through the use of the above described assays (binding and cAMP); CHO cells expressing human CB2R, forskolin-stimulated cAMP
Protocol: B. CB2R Mediated Modulation of cAMP Synthesis:
CHO cells expressing human CB2R (Euroscreen) were plated at a density of 5000 cells per well in 384 well plates and incubated overnight at 37° C. After removing the media, the cells were treated with test compounds diluted in stimulation buffer containing 1 mM IBMX, 0.25% BSA and 10 uM Forskolin. The assay was incubated for 30 minutes at 37° C. Cells were lysed and the cAMP concentration was measured using DiscoverX -XS cAMP kit, following the manufacturer's protocol. In this setting, agonists will decrease forskolin induced production of cAMP while inverse agonists will further increase forskolin induced production of cAMP. EC50 of agonists were calculated as follows. The maximal amount of cAMP produced by forskolin compared to the level of cAMP inhibited by 1 uM CP55940 is defined as 100%. The EC50 value of each test compound was determined as the concentration at which 50% of the forskolin-stimulated cAMP synthesis was inhibited. Data was analyzed using a four-parameter logistic model. (Model 205 of XLfit 4.0).

T1 sequence (P34972 whole entry): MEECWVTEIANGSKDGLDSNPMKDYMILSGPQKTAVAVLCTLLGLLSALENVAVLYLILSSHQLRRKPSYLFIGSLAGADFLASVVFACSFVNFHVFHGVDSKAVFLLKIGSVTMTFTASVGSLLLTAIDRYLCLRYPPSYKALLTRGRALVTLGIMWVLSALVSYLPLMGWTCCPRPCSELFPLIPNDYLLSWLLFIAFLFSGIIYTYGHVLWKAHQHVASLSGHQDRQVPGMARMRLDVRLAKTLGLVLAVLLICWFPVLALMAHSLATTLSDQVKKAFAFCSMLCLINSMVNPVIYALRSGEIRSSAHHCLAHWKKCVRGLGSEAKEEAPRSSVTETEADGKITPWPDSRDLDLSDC

Structure (SMILES) | agonistic activity
Cc1noc(NC(=O)C(C)(C)S(=O)(=O)c2ccc(Cl)cc2)c1-c1ccccc1 [2-(4-Chloro-benzenesulfonyl)-2-methyl-N-(3-methyl-4-phenyl-isoxazol-5-yl)-propionamide] | agonistic activity
CC(C)(C(=O)Nc1nc(-c2ccccc2)no1)S(=O)(=O)c1ccc(Cl)cc1 [2-(4-Chloro-benzenesulfonyl)-2-methyl-N-(3-phenyl-[1,2,4]oxadiazol-5-yl)-propionamide] | agonistic activity
CC(C)(C(=O)Nc1nc(-c2ccccc2)ns1)S(=O)(=O)c1ccc(Cl)cc1 [2-(4-Chloro-benzenesulfonyl)-2-methyl-N-(3-phenyl-[1,2,4]thiadiazol-5-yl)-propionamide] | agonistic activity
CC(C)(C(=O)Nc1cc(-c2ccccc2)no1)S(=O)(=O)c1ccc(Cl)cc1 [2-(4-Chloro-benzenesulfonyl)-2-methyl-N-(3-phenyl-isoxazol-5-yl)-propionamide] | agonistic activity
CCCc1cc(NC(=O)C(C)(C)S(=O)(=O)c2ccc(Cl)cc2)on1 [2-(4-Chloro-benzenesulfonyl)-2-methyl-N-(3-propyl-isoxazol-5-yl)-propionamide] | agonistic activity
CC(C)(C(=O)Nc1cc(-c2cccs2)no1)S(=O)(=O)c1ccc(Cl)cc1 [2-(4-Chloro-benzenesulfonyl)-2-methyl-N-(3-thiophen-2-yl-isoxazol-5-yl)-propionamide] | agonistic activity
CC(C)(C(=O)Nc1cccc(C(F)(F)F)c1)S(=O)(=O)c1ccc(Cl)cc1 [2-(4-Chloro-benzenesulfonyl)-2-methyl-N-(3-trifluoromethyl-phenyl)-propionamide] | agonistic activity
CC(C)(C(=O)Nc1ncccc1C(F)(F)F)S(=O)(=O)c1ccc(Cl)cc1 [2-(4-Chloro-benzenesulfonyl)-2-methyl-N-(3-trifluoromethyl-pyridin-2-yl)-propionamide] | agonistic activity
CC(C)(C(=O)Nc1nc2c(s1)CCCC2)S(=O)(=O)c1ccc(Cl)cc1 [2-(4-Chloro-benzenesulfonyl)-2-methyl-N-(4,5,6,7-tetrahydro-benzothiazol-2-yl)-propionamide] | agonistic activity
Cc1c(-c2ccccc2)noc1NC(=O)C(C)(C)S(=O)(=O)c1ccc(Cl)cc1 [2-(4-Chloro-benzenesulfonyl)-2-methyl-N-(4-methyl-3-phenyl-isoxazol-5-yl)-propionamide] | agonistic activity
Cc1ccnc(NC(=O)C(C)(C)S(=O)(=O)c2ccc(Cl)cc2)c1 [2-(4-Chloro-benzenesulfonyl)-2-methyl-N-(4-methyl-pyridin-2-yl)-propionamide] | agonistic activity
Cc1csc(NC(=O)C(C)(C)S(=O)(=O)c2ccc(Cl)cc2)n1 [2-(4-Chloro-benzenesulfonyl)-2-methyl-N-(4-methyl-thiazol-2-yl)-propionamide] | agonistic activity
CC(C)(C(=O)Nc1nc(-c2ccccc2)co1)S(=O)(=O)c1ccc(Cl)cc1 [2-(4-Chloro-benzenesulfonyl)-2-methyl-N-(4-phenyl-oxazol-2-yl)-propionamide] | agonistic activity
CC(C)(C(=O)Nc1nc(-c2ccccc2)cs1)S(=O)(=O)c1ccc(Cl)cc1 [2-(4-Chloro-benzenesulfonyl)-2-methyl-N-(4-phenyl-thiazol-2-yl)-propionamide] | agonistic activity
CC(C)(C(=O)Nc1nc(CN2CCCCC2)cs1)S(=O)(=O)c1ccc(Cl)cc1 [2-(4-Chloro-benzenesulfonyl)-2-methyl-N-(4-piperidin-1-ylmethyl-thiazol-2-yl)-propionamide] | agonistic activity
CC(C)(C(=O)Nc1nc(-c2ccccn2)cs1)S(=O)(=O)c1ccc(Cl)cc1 [2-(4-Chloro-benzenesulfonyl)-2-methyl-N-(4-pyridin-2-yl-thiazol-2-yl)-propionamide] | agonistic activity
CC(C)(C(=O)Nc1nc(-c2cccnc2)cs1)S(=O)(=O)c1ccc(Cl)cc1 [2-(4-Chloro-benzenesulfonyl)-2-methyl-N-(4-pyridin-3-yl-thiazol-2-yl)-propionamide] | agonistic activity
CC(C)(C(=O)Nc1nc(-c2ccncc2)cs1)S(=O)(=O)c1ccc(Cl)cc1 [2-(4-Chloro-benzenesulfonyl)-2-methyl-N-(4-pyridin-4-yl-thiazol-2-yl)-propionamide] | agonistic activity
CC(C)(C(=O)Nc1nc(-c2cccs2)cs1)S(=O)(=O)c1ccc(Cl)cc1 [2-(4-Chloro-benzenesulfonyl)-2-methyl-N-(4-thiophen-2-yl-thiazol-2-yl)-propionamide] | agonistic activity

Structure (SMILES) | agonistic activity
CC(C)(C(=O)Nc1ccc(C(F)(F)F)cc1)S(=O)(=O)c1ccc(Cl)cc1 [2-(4-Chloro-benzenesulfonyl)-2-methyl-N-(4-trifluoromethyl-phenyl)-propionamide] | agonistic activity
CC(C)(C(=O)Nc1cc(C(F)(F)F)ccn1)S(=O)(=O)c1ccc(Cl)cc1 [2-(4-Chloro-benzenesulfonyl)-2-methyl-N-(4-trifluoromethyl-pyridin-2-yl)-propionamide] | agonistic activity
CC(C)(C(=O)Nc1nc(C(F)(F)F)cs1)S(=O)(=O)c1ccc(Cl)cc1 [2-(4-Chloro-benzenesulfonyl)-2-methyl-N-(4-trifluoromethyl-thiazol-2-yl)-propionamide] | agonistic activity
Cc1cc(NC(=O)C(C)(C)S(=O)(=O)c2ccc(Cl)cc2)n(-c2ccccc2)n1 [2-(4-Chloro-benzenesulfonyl)-2-methyl-N-(5-methyl-2-phenyl-2H-pyrazol-3-yl)-propionamide] | agonistic activity
Cc1sc(NC(=O)C(C)(C)S(=O)(=O)c2ccc(Cl)cc2)nc1-c1ccccc1 [2-(4-Chloro-benzenesulfonyl)-2-methyl-N-(5-methyl-4-phenyl-thiazol-2-yl)-propionamide] | agonistic activity
Cc1cc(NC(=O)C(C)(C)S(=O)(=O)c2ccc(Cl)cc2)no1 [2-(4-Chloro-benzenesulfonyl)-2-methyl-N-(5-methyl-isoxazol-3-yl)-propionamide] | agonistic activity
Cc1ccc(NC(=O)C(C)(C)S(=O)(=O)c2ccc(Cl)cc2)nc1 [2-(4-Chloro-benzenesulfonyl)-2-methyl-N-(5-methyl-pyridin-2-yl)-propionamide] | agonistic activity
CC(C)(C(=O)Nc1n[nH]c(-c2ccccc2)n1)S(=O)(=O)c1ccc(Cl)cc1 [2-(4-Chloro-benzenesulfonyl)-2-methyl-N-(5-phenyl-2H-[1,2,4]triazol-3-yl)-propionamide] | agonistic activity
CC(C)(C(=O)Nc1nsc(-c2ccccc2)n1)S(=O)(=O)c1ccc(Cl)cc1 [2-(4-Chloro-benzenesulfonyl)-2-methyl-N-(5-phenyl-[1,2,4]thiadiazol-3-yl)-propionamide] | agonistic activity
CC(C)(C(=O)Nc1nnc(-c2ccccc2)s1)S(=O)(=O)c1ccc(Cl)cc1 [2-(4-Chloro-benzenesulfonyl)-2-methyl-N-(5-phenyl-[1,3,4]thiadiazol-2-yl)-propionamide] | agonistic activity
CC(C)(C(=O)Nc1cc(-c2ccccc2)on1)S(=O)(=O)c1ccc(Cl)cc1 [2-(4-Chloro-benzenesulfonyl)-2-methyl-N-(5-phenyl-isoxazol-3-yl)-propionamide] | agonistic activity
CC(C)(C(=O)Nc1ccc(-c2ccccc2)cn1)S(=O)(=O)c1ccc(Cl)cc1 [2-(4-Chloro-benzenesulfonyl)-2-methyl-N-(5-phenyl-pyridin-2-yl)-propionamide] | agonistic activity
CC(C)(C(=O)Nc1ncc(-c2ccccc2)s1)S(=O)(=O)c1ccc(Cl)cc1 [2-(4-Chloro-benzenesulfonyl)-2-methyl-N-(5-phenyl-thiazol-2-yl)-propionamide] | agonistic activity
CC(C)(C(=O)Nc1nnc(C(F)(F)F)s1)S(=O)(=O)c1ccc(Cl)cc1 [2-(4-Chloro-benzenesulfonyl)-2-methyl-N-(5-trifluoromethyl-[1,3,4]thiadiazol-2-yl)-propionamide] | agonistic activity
CC(C)(C(=O)Nc1ccc(C(F)(F)F)cn1)S(=O)(=O)c1ccc(Cl)cc1 [2-(4-Chloro-benzenesulfonyl)-2-methyl-N-(5-trifluoromethyl-pyridin-2-yl)-propionamide] | agonistic activity
Cc1cccc(NC(=O)C(C)(C)S(=O)(=O)c2ccc(Cl)cc2)n1 [2-(4-Chloro-benzenesulfonyl)-2-methyl-N-(6-methyl-pyridin-2-yl)-propionamide] | agonistic activity
CC(C)(C(=O)Nc1ccc(Oc2ccccc2)nc1)S(=O)(=O)c1ccc(Cl)cc1 [2-(4-Chloro-benzenesulfonyl)-2-methyl-N-(6-phenoxy-pyridin-3-yl)-propionamide] | agonistic activity
CC(C)(C(=O)Nc1cccc(C(F)(F)F)n1)S(=O)(=O)c1ccc(Cl)cc1 [2-(4-Chloro-benzenesulfonyl)-2-methyl-N-(6-trifluoromethyl-pyridin-2-yl)-propionamide] | agonistic activity
CC(C)(C(=O)Nc1ncc(C2CCOCC2)s1)S(=O)(=O)c1ccc(Cl)cc1 [2-(4-Chloro-benzenesulfonyl)-2-methyl-N-[5-(tetrahydro-pyran-4-yl)-thiazol-2-yl]-propionamide] | agonistic activity
